Assay results taken from patent US10588608B2, “Sampling systems and related materials and methods” (Progenity Inc., priority 2016, dated 2020).
Like-named read-outs stand apart in the source and are kept apart here.

Key:
bacteria = test: Bactericidal preservatives added to bacteria, cell counts by flow cytometry or cell plating; format: cell-based; details: cell counts over 3 days, FIG. 60
bacterial cells = details: preservative with TENT, PCR or plating, FIG. 59A/59B
[1] = high concentration culture, 4.5×10^6 cells
[2] = low concentration culture, 8.6×10^4 cells

Compound	viability of bacteria over time (bacteria)	viability of bacteria (bacterial cells; [1])	viability of bacteria (bacterial cells; [2])
O=C(NCO)N(CO)C1(CO)C(=O)NC(=O)N1CO (centres unmarked) [diazolidinyl urea]	reduced the viability of bacteria		
C[CH2][Hg][S]c1ccccc1C(=O)[O-].[Na+] [thimerosal]	reduced the viability of bacteria	reduce the viability of bacteria	reduce the viability of bacteria
OCCOc1ccccc1 [2-phenoxyethanol]		reduce the viability of bacteria	reduce the viability of bacteria
C/C=C/C=C/C(=O)O [sorbic acid]		reduce the viability of bacteria	reduce the viability of bacteria
